System: Elastase
Assay: Elastase-inhibiting effect of sterol derivatives
Assay type: biochemical
From the text: The elastase-inhibiting effect of various sterol derivatives was investigated in the concentration range from 2.5 to 1000 ppm.

| Elastase-inhibiting effect (2.5 ppm inhibitor) [%-rel] | Elastase-inhibiting effect (5 ppm inhibitor) [%-rel] | Elastase-inhibiting effect (12.5 ppm inhibitor) [%-rel] | Elastase-inhibiting effect (500 ppm inhibitor) [%-rel] | Elastase-inhibiting effect (1000 ppm inhibitor) [%-rel] | Molecule |
| --- | --- | --- | --- | --- | --- |
| 0 | 0 | 0 | 0 | 30 | Phytosterol phosphate [Example C3] |
| 0 | 0 | 0 | 0 | 0 | Phytosterol succinate [Example C2] |
| 31 | 64 | 98 | – | – | Phytosterol sulfate, sodium salt [Example 2] |

| Molecule | Elastase-inhibiting effect (2.5 ppm inhibitor) [%-rel] | Elastase-inhibiting effect (5 ppm inhibitor) [%-rel] | Elastase-inhibiting effect (12.5 ppm inhibitor) [%-rel] | Elastase-inhibiting effect (500 ppm inhibitor) [%-rel] | Elastase-inhibiting effect (1000 ppm inhibitor) [%-rel] |
| --- | --- | --- | --- | --- | --- |
| CC(C)CCC[C@@H](C)[C@H]1CC[C@H]2[C@@H]3CC=C4C[C@@H](OS(=O)(=O)[O-])CC[C@]4(C)[C@H]3CC[C@]12C.[Na+] [Example 1, Cholesterol sulfate, sodium salt] | 49 | 92 | 100 | – | – |
| CC(=O)O[C@H]1CC[C@@]2(C)C(=CC[C@H]3[C@@H]4CC[C@H]([C@H](C)CCCC(C)C)[C@@]4(C)CC[C@@H]32)C1 [Example C1, Cholesterol acetate] | 0 | 0 | 0 | 33 | 59 |
